Measurements taken from PubChem BioAssay (NCI).
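Grown in 96-well plates, cells were treated for 48 hours with each compound at five concentrations. Insufficient inhibition: endpoint recorded as highest concentration tested. Abbreviation: GI50, concentration required for 50% inhibition of growth. At the TGI there is no net growth.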

Tests used:
Experiment in all cases: inhibition of tumour cell growth, NCI panel, 48 h
SN12C renal = system: SN12C renal
LOX IMVI melanoma = system: LOX IMVI melanoma
A549 NSCLC = system: A549 NSCLC
MALME-3M melanoma = system: MALME-3M melanoma
SW-620 colon = system: SW-620 colon
U251 CNS = system: U251 CNS
NCI/ADR-RES ovarian = system: NCI/ADR-RES ovarian
SK-OV-3 ovarian = system: SK-OV-3 ovarian
CAKI-1 renal = system: CAKI-1 renal
BT-549 breast = system: BT-549 breast
MDA-MB-435 = system: MDA-MB-435
HCT-116 colon = system: HCT-116 colon
KM12 colon = system: KM12 colon
RXF 393 renal = system: RXF 393 renal
SK-MEL-28 melanoma = system: SK-MEL-28 melanoma
RPMI-8226 leukemia = system: RPMI-8226 leukemia
DU-145 prostate = system: DU-145 prostate
SR leukemia = system: SR leukemia
MCF7 breast = system: MCF7 breast
PC-3 prostate = system: PC-3 prostate
UACC-62 melanoma = system: UACC-62 melanoma
SF-268 CNS = system: SF-268 CNS
SNB-75 CNS = system: SNB-75 CNS
NCI-H522 lung = system: NCI-H522 lung
HOP-62 NSCLC = system: HOP-62 NSCLC
UACC-257 melanoma = system: UACC-257 melanoma
CCRF-CEM leukemia = system: CCRF-CEM leukemia
K-562 leukemia = system: K-562 leukemia

In the case of CC(C)(C)c1ccc(S(=O)(=O)N[C@H]2CC[C@H]3[C@@H]4CCc5cc(OS(=O)(=O)O)ccc5[C@H]4CC[C@]23C)cc1, the TGI (SN12C renal) is reported as 3.58 µM, the GI50 (LOX IMVI melanoma) is reported as 1.7 µM and the TGI (LOX IMVI melanoma) is reported as 3.11 µM. It also gave a GI50 (A549 NSCLC) of 2.83 µM, a TGI (A549 NSCLC) of 10.2 µM and a GI50 (MALME-3M melanoma) of 2.49 µM. The TGI (MALME-3M melanoma) was 6.05 µM, the GI50 (SW-620 colon) was 3.37 µM and the TGI (SW-620 colon) was 12.5 µM. It also gave a GI50 (U251 CNS) of 1.68 µM, a TGI (U251 CNS) of 3.34 µM and a GI50 (NCI/ADR-RES ovarian) of 2.39 µM. It also gave a TGI (NCI/ADR-RES ovarian) of 7.03 µM, a GI50 (SK-OV-3 ovarian) of 2.92 µM and a TGI (SK-OV-3 ovarian) of 8.54 µM. The GI50 (CAKI-1 renal) was 2.77 µM, the TGI (CAKI-1 renal) was 8.89 µM and the GI50 (BT-549 breast) was 2.1 µM. For the same compound, the TGI (BT-549 breast) was 4.2 µM, the GI50 (MDA-MB-435) was 2.32 µM and the TGI (MDA-MB-435) was 5.9 µM. It also gave a GI50 (HCT-116 colon) of 1.79 µM, a TGI (HCT-116 colon) of 3.35 µM and a GI50 (KM12 colon) of 2.08 µM. It also gave a TGI (KM12 colon) of 4.01 µM, a GI50 (RXF 393 renal) of 1.6 µM and a TGI (RXF 393 renal) of 3.49 µM. It also gave a GI50 (SK-MEL-28 melanoma) of 1.8 µM, a TGI (SK-MEL-28 melanoma) of 3.38 µM and a GI50 (RPMI-8226 leukemia) of 2.55 µM. The TGI (RPMI-8226 leukemia) was 7.37 µM, the GI50 (DU-145 prostate) was 5.72 µM and the TGI (DU-145 prostate) was 18 µM. The GI50 (SR leukemia) was 2.45 µM, the TGI (SR leukemia) was 7.02 µM and the GI50 (MCF7 breast) was 2.38 µM. It also gave a TGI (MCF7 breast) of 5.9 µM, a GI50 (PC-3 prostate) of 4.19 µM and a TGI (PC-3 prostate) of 17.5 µM. For the same compound, the GI50 (UACC-62 melanoma) was 1.81 µM, the TGI (UACC-62 melanoma) was 3.72 µM and the GI50 (SF-268 CNS) was 3.14 µM. The TGI (SF-268 CNS) was 11.5 µM, the GI50 (SNB-75 CNS) was 2.03 µM and the TGI (SNB-75 CNS) was 6.11 µM. It also gave a GI50 (NCI-H522 lung) of 1.93 µM, a TGI (NCI-H522 lung) of 5.15 µM and a GI50 (HOP-62 NSCLC) of 2.87 µM. The TGI (HOP-62 NSCLC) was 7.81 µM, the GI50 (UACC-257 melanoma) was 2.75 µM and the TGI (UACC-257 melanoma) was 9.11 µM. The GI50 (CCRF-CEM leukemia) was 2.88 µM, the TGI (CCRF-CEM leukemia) was 9.25 µM and the GI50 (K-562 leukemia) was 3.22 µM. It also gave a TGI (K-562 leukemia) of 13.6 µM.
